What all share (assay type): cell-based
One experiment relates to NG108-15 cells. Briefly: Neurite crossing of laminin/aggrecan (CSPG) boundary after protein transduction. The settings on record: for neurite extension across laminin/CSPG boundary: vs controls. The text has this:
We developed a second model to observe the effects of substrate-bound GAGs or CSPGs on neurite extension. Briefly, alternating lanes of the CSPG aggrecan and laminin were created on 60 mm diameter tissue culture dishes using a modified version of the Bonhoeffer method. Thus, neurite extension of cells across laminin/CSPG boundaries could be observed in these coated tissue culture dishes. Such laminin/CSPG coated dishes were used for the experiments summarized in the following examples and in FIGS. 7-10.
NG108-15 cells (available from ATCC, Manassas, Va.) were removed from culture flasks and resuspended in Neurobasal-A media (Invitrogen, Carlsbad, Calif.) supplemented with N-2, L-glutamine, and 1% penicillin/streptomycin. 2×10^4 NG108-15 cells were added to a laminin/CSPG coated dish as described in Example 8. After approximately 4 hours, the cells formed lanes adhering to the laminin lanes. The ability of the cells to migrate and/or extend processes across the laminin/CSPG boundary was then assessed following transduction of the cells with control proteins, with various Class I activator proteins, or with a Class 2 inhibitor protein.
Cells were transduced using the CHARIOT protein transduction system with any one of the following: GST control alone, activated Cdc42-GST, dominant negative Cdc42-GST, activated Rac1-GST, dominant negative Rac1-GST, activated RhoA-GST, or the RhoA inhibitor C3 transferase (Cytoskeleton, Denver, Colo.). The activated and dominant negative variants used for these experiments were as following: activated Cdc42=Q61L Cdc42, dominant negative Cdc42=T17N Cdc42, activated Rac1=Q61L Rac1, dominant negative Rac1=T17N […], activated RhoA=Q63 L RhoA. Following protein transduction, cells were placed in humidified incubators at 37° C., and 5% CO2 and were […] after 48 hours.

The next experiment deals with E9 chick DRG. The experiment can be described thus: Three-dimensional layered agarose gel, neurite crossing of gel interfaces. The settings on record: for percentage of DRG neurites that cross the interface between 2 layers: interface of 1% agarose and 2% agarose modified with chondroitin sulfate, compared to non-GAG agarose interface, FIG. 3.
In a further experiment the test system is NG108 cells. The experiment can be described thus: Two dimensional coverslip with alternating stripes of chondroitin sulfate, crossing of short axis. The settings on record: protein delivered with Chariot protein transduction system; unmodified cells less than 10%; FIG. 5A. The text has this:
We developed a two-dimensional model to observe the effects of substrate-bound GAGs or CSPGs on neurite extension. Briefly, the surfaces of glass coverslips were modified using 3-aminopropyltriethoxysilane, which binds amines to the surface. Through a two-step covalent coupling procedure, chondroitin sulfate C(CS-C) was crosslinked to the amines on the surface of the coverslip. First, CS-C was linked to EDAC, a zero-length crosslinker, that reacts with amine groups. With the aid of the Bonhoeffer matrix the CS-C-EDAC solution was passed into the microchannels incubated at room temperature for 30 minutes and removed. This process was repeated three additional times with fresh CS-C-EDAC solution. The CS-C covalently couple to the amines on the modified coverslip via the EDAC.
The coverslips were sonicated for 5 minutes to remove any CS-C that was not covalently bound to the coverslip. The coverslips were sterilized in 70% ethanol, and 15,000 cells were seeded on top of the micropatterned area and incubated at 37° C., 5% CO2. The behavior of the seeded cells can now be examined in the presence or absence of agents which either influence the cells themselves (e.g., Class I activators, Class II inhibitors, etc.) or agents which alter the CS-C. […]

The mark [1] stands for this setting: Chariot transduction, imaged after 48 hours, vs untransduced or GST alone, FIG. 7.

Description for E9 chick DRG: This three-dimensional system allows observation of neuronal cell behavior at gel interfaces. In this example, layer 1 is a control interface composed of 1% agarose, layer 2 contains the neuronal explant, in this case an explant of dorsal root ganglia (DRG) in 1% agarose, and layer 3 is 2% agarose containing chondroitin sulfate-B. The layer 1/layer 2 interface provides a control agarose/agarose interface, while the layer 2/layer 3 interface provides an agarose/CS-GAG rich agarose interface. The ability of neurites to cross the interface between layer 2/layer 3 can be measured.
Agarose gels were made by dissolving SeaPrep agarose (FMC Corp) in pH 7.4 PBS. Agarose solutions were sterilized by p assing through a 0.45 u m filter, gelled and stored at 4° C. Prior to use, the gels were degelled at 65° C., cooled to 37° C., and gelled.
For construction of three dimensional system, agarose gels were layered in a rectangular culture dish. 1% liquid agarose was poured into the dish, and chilled to allow layer 1 to gel. After layer 1 had gelled, liquid agarose containing several E9 chick DRG were poured onto layer 1, and chilled to form layer 2. After layer 2 had gelled, 2% liquid agarose containing chondroitin sulfate-B was poured onto layer 2 and chilled to form layer 3.
To maintain the cells in this culture system, culture medium consisting of DMEM supplemented with 10% fetal bovine serum, 1% penicillin-streptomycin, and 50 ng/mL nerve growth factor was added to the top of the gel.
The ability of neuronal cells to extend processes across the interfaces was quantified by determining the percentage of neurites that successfully crossed the interface using light microscopy.

Take C3 transferase: the “neurite extension across laminin/CSPG boundary” value with NG108-15 cells (2 μg/mL, FIG. 10) was “statistically significant”; with NG108-15 cells (4 μg/mL, FIG. 10), “statistically significant”. Besides, the “percentage of neurites that cross a laminin/aggrecan boundary” value in the experiment on NG108-15 cells (setting [1]) was “statistically significant increase”. Moreover, the “dose dependence of neurite crossing of laminin/aggrecan boundary” value in the experiment on NG108-15 cells (various concentrations, in the presence of Chariot, FIG. 10) was “statistically significant and dose dependent increase”.
Consider “activated RhoA: Q63L RhoA constitutively active Rho family GTPase variant, GST protein”, for which the “percentage of neurites that cross a laminin/aggrecan boundary” value with NG108-15 cells (setting [1]) was “did not significantly promote”.
Consider chondroitin-sulfate B, for which the “percentage of DRG neurites that cross the interface between 2 layers” value was “statistically significant decrease” with E9 chick DRG and “significantly inhibited” in the experiment with E9 chick DRG (listed as CS-GAG). For the same substance, the “extension of neuronal processes at the layer 2/layer 3 interface” value in the experiment with E9 chick DRG (layer 3 is 2% agarose modified with chondroitin sulfate B, FIG. 2C) is listed as “inhibited”.
As for “constitutively active Cdc42: Q61L mutation of human Cdc42 (SEQ ID NO: 2), constitutively active Rho family GTPase protein, delivered by Chariot protein transduction”, the “percentage of neurites that cross a laminin/aggrecan boundary” value with NG108-15 cells (4 μg/mL, Chariot transduction, vs untransduced cells, FIG. 8) is “statistically significant increase”; with NG108-15 cells (setting [1]) it was “statistically significant increase”. Besides, the “dose dependence of neurite extension across laminin/CSPG boundary” value in the experiment with NG108-15 cells (1, 2, 3, 4 μg/mL, Chariot transduction, FIG. 8) was “dose dependent increase”. Besides, the “percentage of NG108 cells that cross the short axis of chondroitin sulfate GAG coverslip” value in the experiment with NG108 cells was “approximately 50%”.
Take “dominant negative Cdc42: T17N Cdc42 dominant negative Rho family GTPase variant, GST protein”: in the experiment with NG108-15 cells (setting [1]), the “percentage of neurites that cross a laminin/aggrecan boundary” value is “did not significantly promote”.

The record behind these values is US7749496B2, “Neuronal regeneration” (Case Western Reserve University, priority 2001, dated 2010).
